Laboratory results reported in PubChem BioAssay AID179 (DTP/NCI, 2004).
The source made the active and inactive calls.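 Rule for the calls: active = compounds giving half or more protection of infected cells from virus-caused growth loss, again on retest; inactive = the rest.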

Tested on: CEM cells HIV-1 protection, formazan growth assay
Assay: NCI AIDS Antiviral Assay
Settings: for IC50: measured here: growth of uninfected CEM cells
Outline: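 Steps: treat uninfected and HIV-1-infected human CEM cells at five drug levels; quantify growth by soluble formazan; retest any compound reaching 50% protection; classify actives from the retest.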

SMILES | EC50 [µM] | IC50 [µM] | outcome
CCCCCCC(=O)N1SC(NC(=O)OC)=Nc2ccccc21 | > 77.6 | 10.2 | 
O=[N+]([O-])c1ccc(CN(CCCl)OCCCl)cc1 | > 200 | 37.2 | 
NC1=C(Br)C(=O)c2ncccc2C1=O |  |  | inactive
COc1ccc(C(=O)C(CO)Oc2ccccc2OC)cc1OC (configuration not stated) | > 759 | 513 | 
CCOC(=O)C1C(=O)C(=O)N2CCc3c([nH]c4ccccc34)C12 (configuration not stated) | > 263 | 166 | 
O=C1C(=O)N(c2ccc(Cl)cc2)C(=O)C(=Nc2cccc3c(=O)[nH][nH]c(=O)c23)C1c1nc2ccccc2o1 (configuration not stated) |  |  | inactive
C[N+](C)(C)CC(=O)N/N=C(/Cc1cc(=O)oc2cc(O)ccc12)C(=O)Nc1ccc(Cl)cc1 | > 51.3 | > 51.3 | 
CC(=O)Nc1c(C(=N)C#N)ncn1CCO | > 200 | > 200 | 
C=C1CN(S(=O)(=O)c2ccc(C)cc2)CCN(Cc2ccccc2)CCN(S(=O)(=O)c2ccc(C)cc2)C1 | > 200 | > 200 | 
CCC12CCCN(Cc3ccccc3)C1c1c(n(C)c3ccccc13)[C@H](C(=O)OC)C2 (some centres not stated) | > 12.6 | > 12.6 | 
Cc1ccc(S(=O)(=O)N2CCCCCC2)cc1 | > 200 | > 100 | 
C=CCn1c(-c2cc(C(C)(C)C)c(O)c(C(C)(C)C)c2)cs/c1=N\C(P(=O)(O)O)P(=O)(O)O | > 200 | 21.4 | 
Cc1cc(S(=O)(=O)Nc2nnc3c4ccccc4ccn23)c(S)cc1Cl | 155 | > 200 | 
CN1/C(=C/C=C/C=C/C=C2C(=O)c3ccccc3C2=O)C(C)(C)c2ccccc21 | 120 | 151 | 
N#CC12C(=O)N3C(=NC(c4ccccc4)NC3c3ccccc3)C1(C#N)C(c1ccccc1)NC1=C2CCC1 (configuration not stated) | > 200 | > 200 | 
CCOC(=O)c1nc2ccc(Cl)cc2c2c1CCO2 | > 5.25 | > 5.25 | 
C=CCc1c(O)c2ccccc2[nH]c1=O | > 200 | > 200 | 
CCN(CC)c1ccc2c(c1)Oc1ccc(N(C(C)=O)c3ccccc3)cc1C21OC(=O)c2ccccc21 (configuration not stated) | > 200 | 6.03 | 
C#CCSc1nnnn1-c1ccc(Br)c(C)c1 | > 200 |  | 
O=c1c2ccccc2c(=O)n2n1CC=CC2 |  |  | inactive
CC(C)C1=CC2=CC(=O)C3C(C)(C)CCCC3(C)C2=C(O)C1=O (configuration not stated) | > 20 | 4.07 | 
CCNC(=S)N/N=C(\C)c1cccc(C)n1 | > 2 | 1.1 | 

SMILES | EC50 [µM] | IC50 [µM] | outcome
CC(C)(C)[Si](C)(C)OCCOCn1cc(F)c(=O)[nH]c1=O | > 200 | > 200 | 
Nc1ncnc2c1ccn2C/C=C\CO | > 200 | > 200 | 
CCCCc1ccc(Nc2nc(OC)c3ncn(C4CC(O)C(CO)O4)c3n2)cc1 (configuration not stated) | > 200 | 15.1 | 
CCOc1ccc2nc(NC(=O)C(=O)C(C(=O)c3ccccc3-c3ccccc3)C3OC(=O)c4ccccc43)sc2c1 (configuration not stated) | > 309 | 132 | 
O=C1c2ccoc2C(=O)c2oc(=O)ccc21 | > 102 | 5.75 | 
O=C(Nc1ccc(C(=O)Nc2ccc(C3=NCCCN3)cc2)cc1)Nc1ccc(C2=NCCCN2)cc1 | > 200 | 17 | 
CS(=O)(=O)OCCCS(=O)(=O)O | > 200 | > 200 | 
CCN(Cc1cccc(S(=O)(=O)[O-])c1)c1ccc(C(=C2C=CC(=[N+](CC)Cc3cccc(S(=O)(=O)O)c3)C=C2)c2ccccc2)cc1 | 148 | 186 | 
CC(=O)/C(=C/N1CC(=O)NC1=S)C(=O)Nc1ccccc1C | > 200 | > 200 | 
COc1ccc(-c2nc(-c3cc4c(ccc5ccccc54)oc3=O)cs2)cc1 | > 100 | > 100 | 
COc1cc(C2SCC(=O)N2c2ccc(-n3c(-c4ccccc4)nc4ccccc4c3=O)cc2)ccc1O (configuration not stated) | > 200 | 102 | 
CC1(c2nc3ccccc3[nH]2)CCC(C#N)C(C)(C)O1 (configuration not stated) | > 200 | > 200 | 
CN(C)c1ccc(/C=C/C=C\C2=CC(=C\C=C/C=C3C=CC(=[N+](C)C)C=C3)/Sc3ccccc32)cc1 | > 1.78 | > 1.78 | 
N#CNC(N)=Nc1cc2ccccc2c2ccccc12 | > 100 | 4.27 | 
O=[N+]([O-])c1cccc(C2c3ccccc3Oc3ccccc32)c1 | > 200 | 19.1 | 
Cn1c(=O)c2c(nc3n(CC(O)CCl)c(=O)ccn23)n(C)c1=O (configuration not stated) | > 200 | 22.4 | 
Nc1nccc(CC(O)(c2ccccc2)c2ccccc2)n1 | > 64.6 | > 64.6 | 
O=C1CC(=O)N(CCc2ccccn2)C(=O)N1CCc1ccccn1 |  |  | inactive
O=C1c2cscc2C(=O)c2c(Cl)sc(Cl)c21 | > 0.2 | > 0.2 | 
O=C(CC(=O)c1ccc([N+](=O)[O-])cc1)C(=O)Nc1nccs1 | > 186 | 155 | 
CC(C)S1=C2C(=O)CC(C)(C)CC2=Nc2ccccc21 (configuration not stated) | 61.7 | > 200 | 
CC12C(=O)N(CCN)C(=O)C1C1c3ccccc3C2c2ccccc21 (configuration not stated) |  |  | inactive
